Results on 22 compounds are retold here after US20210228562A1, “IRAK DEGRADERS AND USES THEREOF” (Kymera Therapeutics, Inc., priority 2019, published 2021).

Type in all cases: cell-based
Test [1] concerns the target T1, Ikaros (protein product of gene IKZF1) (Homo sapiens, UniProt Q13422+Q96SW2).
T1 construct: endogenous in cells; host or cells: OCI-LY10
The test can be described thus: Quantification of Ikaros degradation in OCI-LY10 cells (quantitative immunoblotting). The following applies: 6 h treatment. The method, then:
(§1) Degradation of Ikaros (protein product of gene IKZF1) and Aiolos (protein product of gene IKZF3) were determined by quantitative immunoblotting as follows. OCI-LY10 cells, 2×10^6 cells/well, were treated with listed concentrations of IRAK4 degraders or control compounds in 6 well plates for 6 h. Cells were collected, washed with cold PBS, lysed in RIPA buffer (Boston BioProducts BP-115D) with protease/phosphatase inhibitor cocktail (Roche 05892791001/Roche 04906837001) and centrifuged at 13000 RPM for 20 min to precipitate insoluble material. The supernatant fraction was diluted in SDS-PAGE loading buffer (Beyotime Bio P0015) and 20 μL of each sample was resolved on 4-12% Bis-Tris SDS-PAGE gels (Novex, WG1402BOX). Resolved samples were transferred to nitrocellulose membranes by wet electro-transfer method at 250 mV for 1.5 h. The membrane was blocked with LICOR blocking buffer (LI-COR, 927-50000) for 1 hour, washed three times with TBST (CST #99975) for 5 minutes each and incubated with primary antibody prepared in block buffer with 0.1% Tween-20 (Solarbio, P8220) at 4° C. overnight. Ikaros antibody was rabbit monoclonal D6N9Y (CST #14859), at 1:1000 dilution. Aiolos antibody was rabbit monoclonal D1C1E (CST #15103), at 1:1000 dilution. Signal was normalized to mouse anti-beta-Actin monoclonal 8H10D10 (CST #3700) used at 1:10,000 dilution. After incubation in primary antibodies, membranes were washed three times with TBST, 5 minutes each, incubated with fluorescently labeled secondary antibodies anti-rabbit IgG (Licor, 926-32211) at 1:5000 dilution; anti-mouse IgG (LI-COR, 926-68070) at 1:5000 dilution, for 1 hour at RT. After incubation in secondary, membranes were washed three times with TBST, 5 minutes each and read on LICOR Odyssey imager. Data was reported as signal for Ikaros or Aiolos relative to signal for actin, and normalized to DMSO-treated control.
Background: A western blot detects proteins with antibodies after separation by electrophoresis.

Test [2] concerns the target T2, Aiolos (protein product of gene IKZF3) (Homo sapiens, UniProt Q96SW2+Q9UKT9).
T2 construct: endogenous in cells; host or cells: OCI-LY10
As to the kind of experiment: Quantification of Aiolos degradation in OCI-LY10 cells (quantitative immunoblotting). The following applies: 6 h treatment. The method, then:
as §1

For another test, the target named is T3, IRAK4 (Homo sapiens, UniProt Q9NWZ3).
T3 construct: endogenous in cells; host or cells: OCI-LY10
T3 sequence (Q9NWZ3 1-460): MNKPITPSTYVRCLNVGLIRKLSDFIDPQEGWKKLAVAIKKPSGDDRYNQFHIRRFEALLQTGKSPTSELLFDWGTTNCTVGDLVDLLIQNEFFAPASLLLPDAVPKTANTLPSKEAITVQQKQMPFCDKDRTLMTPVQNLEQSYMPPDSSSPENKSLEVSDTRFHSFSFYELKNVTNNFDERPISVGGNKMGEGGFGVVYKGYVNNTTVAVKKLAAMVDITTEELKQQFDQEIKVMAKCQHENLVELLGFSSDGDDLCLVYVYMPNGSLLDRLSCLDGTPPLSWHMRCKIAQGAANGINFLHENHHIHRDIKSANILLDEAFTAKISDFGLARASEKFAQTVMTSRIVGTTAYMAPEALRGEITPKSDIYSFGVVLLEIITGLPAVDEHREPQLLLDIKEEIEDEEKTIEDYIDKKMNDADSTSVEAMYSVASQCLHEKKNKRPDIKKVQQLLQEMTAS
As to the kind of experiment: IRAK4 MSD Degradation in OCI-LY10. The following applies: OCI-LY10 cells, 24 hrs incubation; read-out: IRAK4 degradation in OCI-LY10 at 24 hrs: DC50. As for the experimental part: Degradation of IRAK4 in OCI-LY10 was quantitatively measured using Meso Scale Discovery technology. OCI-LY10 cells were seeded in 96-well plates (Corning 3799) with a density of 300,000 cells per well in 100 μL fresh media. Compounds were then added to the assay plates with a final top concentration of 1 to 10 μM in a 1:3 dilution series with total of 8 doses. The assay plates were then incubated for 4 to 24 hours at 37° C. under 5% CO2. The assay plates were then centrifuged for 5 minutes and the cell pellets were treated with 100 μL/well RIPA lysis buffer (Boston BioProducts BP-115D) with proteinase inhibitors. To prepare MSD assay plates (Meso Scale Discovery Catalog number L15XA-3), the plates were coated with 2 μg/mL capture antibody (mouse Anti-IRAK4 antibody [2H9], ab119942) in PBS, at 40 μL/well. The plates were then incubated overnight at 4° C., washed 3 times with 150 μL/well TBST buffer (Cell Signaling Technology, Catalog number 9997S) and blocked with 150 μL/well blocking buffer (Meso Scale Discovery Catalog number R93BA-4). Cell lysates were then added to MSD assay plates and the plates were incubated at room temperature for 1 hour. The plates were then washed 3 times with 150 μL/well TBST buffer and 25 μL/well primary detection antibody (rabbit Anti-IRAK4 antibody [Y279], from Abcam. Catalog number ab32511, 1 μg/mL). The assay plates were then incubated at room temperature for 1 hour, washed 3 times with 150 μL/well TBST buffer and 25 μL/well secondary detection antibody, SULFO-TAG anti-rabbit antibody were added (anti rabbit antibody from Meso Scale Discovery, Catalog number R32AB-1, 1 μg/mL). The assay plates were then incubated at room temperature for 1 hour, washed 3 times with 150 μL/well TBST buffer, and 150 μL/well MSD reading buffer (Meso Scale Discovery catalog number R92TC-2) was added. The plates were then analyzed by a MSD reader (Meso Scale Discovery, Model Quick Plex SQ 120). The data was then analyzed by software Prism 7.0 from GraphPad and the dose-depended IRAK4 degradation were fit using a three-parameter logistic equation to calculate DC50.

Usually DC50 stands for the concentration at which degradation of the target reaches its halfway point.

T2 sequence (Q9UKT9 whole entry): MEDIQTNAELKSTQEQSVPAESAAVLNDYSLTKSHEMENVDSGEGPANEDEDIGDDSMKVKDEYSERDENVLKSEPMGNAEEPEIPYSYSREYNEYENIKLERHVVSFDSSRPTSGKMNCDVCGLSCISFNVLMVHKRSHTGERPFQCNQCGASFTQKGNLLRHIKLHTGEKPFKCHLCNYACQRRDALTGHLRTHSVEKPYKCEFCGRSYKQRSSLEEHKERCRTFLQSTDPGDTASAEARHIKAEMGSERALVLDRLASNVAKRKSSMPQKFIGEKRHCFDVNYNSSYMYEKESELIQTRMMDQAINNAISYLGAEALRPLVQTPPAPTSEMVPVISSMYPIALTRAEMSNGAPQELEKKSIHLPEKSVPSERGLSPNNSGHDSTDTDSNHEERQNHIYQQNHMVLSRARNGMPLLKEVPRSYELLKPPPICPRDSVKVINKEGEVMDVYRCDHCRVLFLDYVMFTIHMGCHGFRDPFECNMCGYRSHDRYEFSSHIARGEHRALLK
T2 sequence (Q96SW2 whole entry): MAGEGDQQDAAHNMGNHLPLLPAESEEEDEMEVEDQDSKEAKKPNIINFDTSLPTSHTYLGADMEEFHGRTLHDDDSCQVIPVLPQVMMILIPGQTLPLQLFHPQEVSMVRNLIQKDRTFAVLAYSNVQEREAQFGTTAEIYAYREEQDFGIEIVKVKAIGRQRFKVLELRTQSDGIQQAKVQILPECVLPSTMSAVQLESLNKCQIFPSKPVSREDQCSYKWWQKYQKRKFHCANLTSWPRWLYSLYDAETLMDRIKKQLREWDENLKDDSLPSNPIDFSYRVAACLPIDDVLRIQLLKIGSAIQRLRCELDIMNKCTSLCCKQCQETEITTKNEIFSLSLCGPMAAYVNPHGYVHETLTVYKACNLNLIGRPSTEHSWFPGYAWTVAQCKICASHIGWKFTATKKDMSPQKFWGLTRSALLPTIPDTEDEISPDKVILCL
T2 sequence (Q16531 whole entry partner): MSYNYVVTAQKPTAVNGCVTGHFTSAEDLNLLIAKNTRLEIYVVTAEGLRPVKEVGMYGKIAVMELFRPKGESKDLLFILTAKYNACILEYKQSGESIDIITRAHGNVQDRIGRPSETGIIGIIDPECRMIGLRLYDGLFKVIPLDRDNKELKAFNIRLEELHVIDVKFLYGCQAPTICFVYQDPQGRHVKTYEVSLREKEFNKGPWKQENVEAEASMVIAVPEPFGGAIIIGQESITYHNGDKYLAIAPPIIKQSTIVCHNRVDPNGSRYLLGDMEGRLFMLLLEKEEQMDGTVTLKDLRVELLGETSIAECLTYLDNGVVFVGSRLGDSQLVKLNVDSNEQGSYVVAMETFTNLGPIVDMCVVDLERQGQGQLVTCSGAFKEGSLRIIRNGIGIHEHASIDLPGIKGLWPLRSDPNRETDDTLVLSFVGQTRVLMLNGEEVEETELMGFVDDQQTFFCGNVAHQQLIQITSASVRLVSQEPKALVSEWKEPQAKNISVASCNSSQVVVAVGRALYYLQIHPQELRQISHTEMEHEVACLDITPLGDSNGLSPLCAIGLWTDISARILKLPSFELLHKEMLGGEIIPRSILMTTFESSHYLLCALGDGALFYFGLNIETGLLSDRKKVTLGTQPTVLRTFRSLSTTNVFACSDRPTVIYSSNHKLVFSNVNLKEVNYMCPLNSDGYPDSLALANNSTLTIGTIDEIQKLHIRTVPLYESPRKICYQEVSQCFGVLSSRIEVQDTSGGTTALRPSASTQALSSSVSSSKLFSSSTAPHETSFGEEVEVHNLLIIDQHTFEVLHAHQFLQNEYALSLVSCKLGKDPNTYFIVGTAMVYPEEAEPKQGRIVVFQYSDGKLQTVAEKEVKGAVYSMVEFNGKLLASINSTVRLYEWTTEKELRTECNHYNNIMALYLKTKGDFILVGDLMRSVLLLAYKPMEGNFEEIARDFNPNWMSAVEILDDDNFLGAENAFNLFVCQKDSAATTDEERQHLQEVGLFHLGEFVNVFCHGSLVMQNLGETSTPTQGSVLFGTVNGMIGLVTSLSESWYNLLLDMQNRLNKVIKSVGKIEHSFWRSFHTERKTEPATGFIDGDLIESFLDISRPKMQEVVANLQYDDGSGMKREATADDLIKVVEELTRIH
T1 sequence (Q13422 whole entry): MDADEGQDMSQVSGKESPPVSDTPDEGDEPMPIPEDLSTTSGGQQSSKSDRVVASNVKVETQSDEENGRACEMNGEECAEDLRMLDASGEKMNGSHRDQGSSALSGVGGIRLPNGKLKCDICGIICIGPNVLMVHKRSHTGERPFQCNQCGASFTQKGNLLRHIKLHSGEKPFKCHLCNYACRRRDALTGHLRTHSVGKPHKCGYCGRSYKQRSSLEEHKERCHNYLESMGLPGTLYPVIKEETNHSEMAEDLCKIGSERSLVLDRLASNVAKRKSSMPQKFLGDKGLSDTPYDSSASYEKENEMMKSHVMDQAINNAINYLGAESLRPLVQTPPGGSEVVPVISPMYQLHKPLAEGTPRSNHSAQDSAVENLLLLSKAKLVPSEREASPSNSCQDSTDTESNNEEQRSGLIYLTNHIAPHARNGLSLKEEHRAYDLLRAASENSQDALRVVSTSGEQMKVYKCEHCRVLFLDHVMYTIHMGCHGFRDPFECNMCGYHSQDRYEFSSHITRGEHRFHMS
T1 sequence (Q96SW2 whole entry): as the sequence (Q96SW2 whole entry) above
T1 sequence (Q16531 whole entry partner): as the sequence (Q16531 whole entry partner) above

With `CC(C)(O)c1cc2nc([C@H]3CC[C@H](CN4CC5(CC(CCNc6cccc7c6C(=O)N([C@@H]6CCC(=O)NC6=O)C7=O)C5)C4)CC3)sc2cc1NC(=O)c1cccc(C(F)(F)F)n1` (single isomer, unassigned) [I-65], the DC50 (in test [1]; in test [2]; at IRAK4) was less than 50 nM in each case.
`CC(C)(O)c1cc2nc([C@H]3CC[C@H](CN4CC5(CC(CCNc6cccc7c6C(=O)N([C@H]6CCC(=O)NC6=O)C7=O)C5)C4)CC3)sc2cc1NC(=O)c1cccc(C(F)(F)F)n1` (single isomer, unassigned) [I-66]: the DC50 (in test [1]; in test [2]; on IRAK4) was less than 50 nM each time.
On to `CC(C)(O)c1cc2nc(N3CCC(CN4CCC5(CC4)CC(Nc4cccc6c4C(=O)N(C4CCC(=O)NC4=O)C6=O)C5)CC3)sc2cc1NC(=O)c1cccc(C(F)(F)F)n1` (centres unmarked) [I-4], for which the DC50 in test [1] and in test [2] was less than 50 nM throughout.
In the case of `CC(C)(O)c1cc2nc([C@H]3CC[C@H](CN4CCC5(CC4)CC(CCNc4cccc6c4C(=O)N(C4CCC(=O)NC4=O)C6=O)C5)CC3)sc2cc1NC(=O)c1cccc(C(F)(F)F)n1` (some centres unmarked) [I-5], the DC50 in test [1] and in test [2] was less than 50 nM each time.
With `CN(CCCO[C@H]1C[C@H](Nc2cccc3c2C(=O)N(C2CCC(=O)NC2=O)C3=O)C1)C[C@H]1CC[C@H](c2nc3cc(C(C)(C)O)c(NC(=O)c4cccc(C(F)(F)F)n4)cc3s2)CC1` (some centres unmarked) [I-7], the DC50 in test [1] and in test [2] was less than 50 nM each time.
Regarding `COc1cc2nc([C@H]3CC[C@H](CN4CC5(CC(CCNc6cccc7c6C(=O)N(C6CCC(=O)NC6=O)C7=O)C5)C4)CC3)sc2cc1NC(=O)c1cccc(C(C)(F)F)n1` (some centres unmarked) [I-8], the DC50 in test [1] and in test [2] was less than 50 nM in each case.
In the case of `COc1cc2nc([C@H]3CC[C@H](CN4CCC(CCNc5cccc6c5C(=O)N(C5CCC(=O)NC5=O)C6=O)CC4)CC3)sc2cc1NC(=O)c1cccc(C(C)(F)F)n1` (some centres unmarked) [I-9], the DC50 in test [1] is 50 to 100 nM; in test [2] it was less than 50 nM.
For `COc1cc2nc([C@H]3CC[C@H](CN4CC5(CC(CCNc6cccc7c6C(=O)N(C6CCC(=O)NC6=O)C7=O)C5)C4)CC3)sc2cc1NC(=O)c1cccc(C(F)(F)F)n1` (some centres unmarked) [I-10] the same measures were less than 50 nM and less than 50 nM.
For `COc1cc2nc([C@H]3CC[C@H](CN4CC5(CCC(CNc6cccc7c6C(=O)N(C6CCC(=O)NC6=O)C7=O)CC5)C4)CC3)sc2cc1NC(=O)c1cccc(C(C)(F)F)n1` (some centres unmarked) [I-11] the same measures were 100 to 500 nM and 50 to 100 nM.
For `COc1cc2nc([C@H]3CC[C@H](CN4CCC5(CC4)CC(CCNc4cccc6c4C(=O)N(C4CCC(=O)NC4=O)C6=O)C5)CC3)sc2cc1NC(=O)c1cccc(C)n1` (some centres unmarked) [I-12] the same measures were less than 50 nM and less than 50 nM.
As to `CC(C)(O)c1cc2nc([C@H]3CC[C@H](CN4CC5(CC(CCCNc6cccc7c6C(=O)N(C6CCC(=O)NC6=O)C7=O)C5)C4)CC3)sc2cc1NC(=O)c1cccc(C(F)(F)F)n1` (some centres unmarked) [I-13], the DC50 in test [1] and in test [2] was less than 50 nM each time.
For the compound `COc1cc2nc([C@H]3CC[C@H](CN(C)[C@H]4CC[C@@]5(CC4)C[C@@H](CNc4cccc6c4C(=O)N(C4CCC(=O)NC4=O)C6=O)C5)CC3)sc2cc1NC(=O)c1cccc(C(F)(F)F)n1` (some centres unmarked) [I-14], the DC50 in test [1] is 50 to 100 nM; in test [2], less than 50 nM.
For `COc1cc2nc([C@H]3CC[C@H](CN4CCC5(CC4)CC(Nc4cccc6c4C(=O)N(C4CCC(=O)NC4=O)C6=O)C5)CC3)sc2cc1NC(=O)c1cccc(C)n1` (some centres unmarked) [I-15] the same measures were 100 to 500 nM and 50 to 100 nM.
The compound `COc1cc2nc([C@H]3CC[C@H](CN4CC5(CC(CCNc6cccc7c6C(=O)N(C6CCC(=O)NC6=O)C7=O)C5)C4)CC3)sc2cc1NC(=O)c1ccnc(C)n1` (some centres unmarked) [I-16] gave a DC50 in test [1] of less than 50 nM.
For `COc1cc2nc([C@H]3CC[C@H](CN4CCC5(CC4)CC(CCNc4cccc6c4C(=O)N(C4CCC(=O)NC4=O)C6=O)C5)CC3)sc2cc1NC(=O)c1ccnc(C)n1` (some centres unmarked) [I-17], the DC50 in test [1] and in test [2] was less than 50 nM each time.
With `CC(C)(O)c1cc2nc(N3CCC(CN4CCC5(CC4)CC(CCNc4cccc6c4C(=O)N(C4CCC(=O)NC4=O)C6=O)C5)CC3)sc2cc1NC(=O)c1cccc(C(F)(F)F)n1` (centres unmarked) [I-18], the DC50 in test [1] and in test [2] was less than 50 nM throughout.
For `CC(C)(O)c1cc2nc(N3CCC(CN4CC5(CC(CCNc6cccc7c6C(=O)N(C6CCC(=O)NC6=O)C7=O)C5)C4)CC3)sc2cc1NC(=O)c1cccc(C(F)(F)F)n1` (centres unmarked) [I-36], the DC50 in test [1] and in test [2] was less than 50 nM in each case.
On to `CC(C)(O)c1cc2nc(N3CC(CN4CCC5(CC4)CC(CNc4cccc6c4C(=O)N(C4CCC(=O)NC4=O)C6=O)C5)C3)sc2cc1NC(=O)c1cccc(C(F)(F)F)n1` (centres unmarked) [I-38], for which the DC50 in test [1] and in test [2] was less than 50 nM throughout.
For the compound `COc1cc2nc([C@H]3CC[C@H](CN4CCC(O[C@H]5C[C@H](Nc6cccc7c6C(=O)N(C6CCC(=O)NC6=O)C7=O)C5)CC4)CC3)sc2cc1NC(=O)c1cccc(C(F)(F)F)n1` (some centres unmarked) [I-39], the DC50 in test [1] and in test [2] was less than 50 nM each time.
With `CC(C)(O)c1nc2nc([C@H]3CC[C@H](CN4CC5(CC(CCNc6cccc7c6C(=O)N(C6CCC(=O)NC6=O)C7=O)C5)C4)CC3)sc2cc1NC(=O)c1cccc(C(F)(F)F)n1` (some centres unmarked) [I-43], the DC50 in test [1] and in test [2] was less than 50 nM throughout.
In the case of `CC(C)(O)c1cc2nc(N3CC(CN4CC5(CC(CNc6cccc7c6C(=O)N(C6CCC(=O)NC6=O)C7=O)C5)C4)C3)sc2cc1NC(=O)c1cccc(C(F)(F)F)n1` (centres unmarked) [I-44], the DC50 in test [1] and in test [2] was less than 50 nM each time.
Regarding `CC(C)(O)c1cc2nc([C@H]3CC[C@H](CN4CC5(CC(CCNc6cccc7c6C(=O)N(C6CCC(=O)NC6=O)C7=O)C5)C4)CC3)sc2cc1NC(=O)c1cnn2ccc(N3C[C@H]4C[C@@H]3CO4)nc12` (some centres unmarked) [I-61], the DC50 at IRAK4 is greater than 1000 nM.
